Test results: patent publication EP4635500A1, “THERAPEUTIC AGENT FOR BACTERIAL INFECTION” (Sumitomo Pharma Co., Ltd., priority 2022, dated 2024)
In brackets after ≈: the same amount, converted by molar mass. Read-outs that look alike come from different tables or passages of the source.

Tests used:
Assay type in all cases: cell-based
Providencia rettgeri = assay: MIC, broth microdilution, standard strains and Japanese clinical isolates (Example 5, Table 4); details: ATCCBAA2525; KUB4010 Providencia rettgeri ATCC BAA-2525, OXA-181
Escherichia coli = assay: as above
53 CRE and CPE strains = assay: MICrange, MIC50, MIC80, MIC90 for 53 bacterial isolates (Example 5, Table 5)
Enterobacterales = assay: MIC, broth microdilution, CDC/FDA Antibiotic Resistance Isolate Bank (Example 7, Tables 8, 11, 12)

SMILES: CC(C)(O/N=C(\C(=O)N[C@@H]1C(=O)N2C(C(=O)[O-])=C(C[N+]3(CCNC(=O)c4ccc(O)c(O)c4Cl)CCCC3)CS[C@H]12)c1csc(N)n1)C(=O)O [Cefiderocol, cefiderocol]
- MIC (Providencia rettgeri): 2 µg/mL (≈ 2.66 µM)
- MIC (Escherichia coli; ATCCBAA2452, KUB4005 Escherichia coli ATCC BAA-2452, NDM-1): 0.5 µg/mL (≈ 0.665 µM)
- MIC (Escherichia coli; ATCCBAA2471, KUB4007 Escherichia coli ATCC BAA-2471, NDM-6): 4 µg/mL (≈ 5.32 µM)
- MIC90 (53 CRE and CPE strains; 53 CRE and CPE strains, read-out: MIC90): 4 µg/mL (≈ 5.32 µM)
- MIC90 (53 CRE and CPE strains; 53 bacterial isolates): 4 µg/mL (≈ 5.32 µM)
- MICrange (53 CRE and CPE strains; 53 bacterial isolates): ≤0.06 to 8 µg/mL
- MIC80 (53 CRE and CPE strains; 53 bacterial isolates, read-out: MIC80): 2 µg/mL (≈ 2.66 µM)
- MIC50 (Enterobacterales; 154 strains of Enterobacterales, read-out: MIC50): 0.5 µg/mL (≈ 0.665 µM)
- MIC80 (Enterobacterales; 154 strains of Enterobacterales, read-out: MIC80): 1 µg/mL (≈ 1.33 µM)
- MIC90 (Enterobacterales; 154 strains of Enterobacterales, read-out: MIC90): 2 µg/mL (≈ 2.66 µM)
- MIC (Enterobacterales; Citrobacter freundii, KUB No. 5654, AR Bank # 157, read-out: MIC): 1 µg/mL (≈ 1.33 µM)
- MIC (Enterobacterales; Enterobacter cloacae, Enterobacter cloacae KUB No. 5792, AR Bank #448, read-out: MIC): 2 µg/mL (≈ 2.66 µM)
- MIC (Enterobacterales; Enterobacter cloacae, Enterobacter cloacae KUB No. 5807, AR Bank #501, read-out: MIC): 1 µg/mL (≈ 1.33 µM)
- MIC (Enterobacterales; Enterobacter cloacae, Enterobacter cloacae KUB No. 5808, AR Bank #502, read-out: MIC): 1 µg/mL (≈ 1.33 µM)
- MIC (Enterobacterales; Enterobacter cloacae, Enterobacter cloacae complex, KUB No. 5661, AR Bank # 164, read-out: MIC): 0.5 µg/mL (≈ 0.665 µM)
- MIC (Enterobacterales; Enterobacter cloacae, Enterobacter cloacae group, KUB No. 5629, AR Bank # 132, read-out: MIC): 0.5 µg/mL (≈ 0.665 µM)
- MIC (Enterobacterales; Enterobacter cloacae, KUB No. 5535, AR Bank# 38, read-out: MIC): 0.5 µg/mL (≈ 0.665 µM)
- MIC (Enterobacterales; Enterobacter cloacae, KUB No. 5547, AR Bank# 50, read-out: MIC): 2 µg/mL (≈ 2.66 µM)
- MIC (Enterobacterales; Enterobacter cloacae, KUB No. 5550, AR Bank# 53, read-out: MIC): 0.12 µg/mL (≈ 0.16 µM)
- MIC (Enterobacterales; Enterobacter cloacae, KUB No. 5557, AR Bank# 60, read-out: MIC): 4 µg/mL (≈ 5.32 µM)
- MIC (Enterobacterales; Enterobacter cloacae, KUB No. 5562, AR Bank # 65, read-out: MIC): 0.25 µg/mL (≈ 0.332 µM)
- MIC (Enterobacterales; Enterobacter cloacae, KUB No. 5569, AR Bank # 72, read-out: MIC): 0.25 µg/mL (≈ 0.332 µM)
- MIC (Enterobacterales; Enterobacter cloacae, KUB No. 5570, AR Bank # 73, read-out: MIC): 0.25 µg/mL (≈ 0.332 µM)
- MIC (Enterobacterales; Enterobacter cloacae, KUB No. 5590, AR Bank # 93, read-out: MIC): 0.25 µg/mL (≈ 0.332 µM)
- MIC (Enterobacterales; Enterobacter cloacae, KUB No. 5660, AR Bank # 163, read-out: MIC): 0.25 µg/mL (≈ 0.332 µM)
- MIC (Enterobacterales; Enterobacter cloacae, KUB No. 5761, AR Bank # 365, read-out: MIC): 0.25 µg/mL (≈ 0.332 µM)
- MIC (Enterobacterales; Enterobacter cloacae, KUB No. 5762, AR Bank # 366, read-out: MIC): 0.25 µg/mL (≈ 0.332 µM)
- MIC (Enterobacterales; Enterobacter cloacae, KUB No. 5763, AR Bank # 367, read-out: MIC): 1 µg/mL (≈ 1.33 µM)
- MIC (Enterobacterales; Enterobacter cloacae, KUB No. 5778, AR Bank # 432, read-out: MIC): 4 µg/mL (≈ 5.32 µM)
- MIC (Enterobacterales; Enterobacter cloaccae, KUB No. 5651, AR Bank # 154, read-out: MIC): 4 µg/mL (≈ 5.32 µM)
- MIC (Enterobacterales; Enterobacter clooreae, KUB No. 5633, AR Bank # 136, read-out: MIC): 0.25 µg/mL (≈ 0.332 µM)
- MIC (Enterobacterales; Escherichia coli, Escherichia coli KUB No. 5783, AR Bank #437, read-out: MIC): 0.25 µg/mL (≈ 0.332 µM)
- MIC (Enterobacterales; Escherichia coli, Escherichia coli KUB No. 5794, AR Bank #450, read-out: MIC): 0.25 µg/mL (≈ 0.332 µM)
- MIC (Enterobacterales; Escherichia coli, Escherichia coli KUB No. 5795, AR Bank #451, read-out: MIC): 0.5 µg/mL (≈ 0.665 µM)
- MIC (Enterobacterales; Escherichia coli, Escherichia coli KUB No. 5796, AR Bank #452, read-out: MIC): 1 µg/mL (≈ 1.33 µM)
- MIC (Enterobacterales; Escherichia coli, Escherichia coli KUB No. 5803, AR Bank #861, read-out: MIC): 2 µg/mL (≈ 2.66 µM)
- MIC (Enterobacterales; Escherichia coli, KUB No. 5558, AR Bank # 61, read-out: MIC): ≤ 0.06 µg/mL
- MIC (Enterobacterales; Escherichia coli, KUB No. 5564, AR Bank # 67, read-out: MIC): 0.12 µg/mL (≈ 0.16 µM)
- MIC (Enterobacterales; Escherichia coli, KUB No. 5566, AR Bank # 69, read-out: MIC): 1 µg/mL (≈ 1.33 µM)
- MIC (Enterobacterales; Escherichia coli, KUB No. 5574, AR Bank # 77, read-out: MIC): ≤ 0.06 µg/mL
- MIC (Enterobacterales; Escherichia coli, KUB No. 5578, AR Bank # 81, read-out: MIC): 0.25 µg/mL (≈ 0.332 µM)
- MIC (Enterobacterales; Escherichia coli, KUB No. 5581, AR Bank # 84, read-out: MIC): 0.5 µg/mL (≈ 0.665 µM)
- MIC (Enterobacterales; Escherichia coli, KUB No. 5582, AR Bank # 85, read-out: MIC): 0.12 µg/mL (≈ 0.16 µM)
- MIC (Enterobacterales; Escherichia coli, KUB No. 5583, AR Bank # 86, read-out: MIC): 0.12 µg/mL (≈ 0.16 µM)
- MIC (Enterobacterales; Escherichia coli, KUB No. 5586, AR Bank # 89, read-out: MIC): ≤ 0.06 µg/mL
- MIC (Enterobacterales; Escherichia coli, KUB No. 5601, AR Bank # 104, read-out: MIC): 1 µg/mL (≈ 1.33 µM)
- MIC (Enterobacterales; Escherichia coli, KUB No. 5611, AR Bank # 114, read-out: MIC): 0.25 µg/mL (≈ 0.332 µM)
- MIC (Enterobacterales; Escherichia coli, KUB No. 5615, AR Bank # 118, read-out: MIC): 2 µg/mL (≈ 2.66 µM)
- MIC (Enterobacterales; Escherichia coli, KUB No. 5616, AR Bank # 119, read-out: MIC): 0.5 µg/mL (≈ 0.665 µM)
- MIC (Enterobacterales; Escherichia coli, KUB No. 5625, AR Bank # 128, read-out: MIC): 2 µg/mL (≈ 2.66 µM)
- MIC (Enterobacterales; Escherichia coli, KUB No. 5634, AR Bank # 137, read-out: MIC): 2 µg/mL (≈ 2.66 µM)
- MIC (Enterobacterales; Escherichia coli, KUB No. 5646, AR Bank # 149, read-out: MIC): 16 µg/mL (≈ 21.3 µM)
- MIC (Enterobacterales; Escherichia coli, KUB No. 5647, AR Bank # 150, read-out: MIC): 4 µg/mL (≈ 5.32 µM)
- MIC (Enterobacterales; Escherichia coli, KUB No. 5648, AR Bank # 151, read-out: MIC): 4 µg/mL (≈ 5.32 µM)
- MIC (Enterobacterales; Escherichia coli, KUB No. 5659, AR Bank # 162, read-out: MIC): 8 µg/mL (≈ 10.6 µM)
- MIC (Enterobacterales; Escherichia coli, KUB No. 5764, AR Bank # 368, read-out: MIC): ≤ 0.06 µg/mL
- MIC (Enterobacterales; Escherichia coli, KUB No. 5765, AR Bank # 369, read-out: MIC): 0.25 µg/mL (≈ 0.332 µM)
- MIC (Enterobacterales; Escherichia coli, KUB No. 5766, AR Bank # 370, read-out: MIC): 0.5 µg/mL (≈ 0.665 µM)
- MIC (Enterobacterales; Escherichia coli, KUB No. 5767, AR Bank # 371, read-out: MIC): 0.5 µg/mL (≈ 0.665 µM)
- MIC (Enterobacterales; Escherichia coli, KUB No. 5768, AR Bank # 372, read-out: MIC): 1 µg/mL (≈ 1.33 µM)
- MIC (Enterobacterales; Escherichia coli, KUB No. 5769, AR Bank # 373, read-out: MIC): ≤ 0.06 µg/mL
- MIC (Enterobacterales; Escherichia coli, KUB No. 5770, AR Bank # 374, read-out: MIC): < 0.06 µg/mL
- MIC (Enterobacterales; Escherichia coli, KUB No. 5774, AR Bank # 378, read-out: MIC): 0.12 µg/mL (≈ 0.16 µM)
- MIC (Enterobacterales; Escherichia coli, KUB No. 5779, AR Bank # 433, read-out: MIC): 0.5 µg/mL (≈ 0.665 µM)
- MIC (Enterobacterales; Escherichia coli, KUB No. 5780, AR Bank # 434, read-out: MIC): 0.5 µg/mL (≈ 0.665 µM)
- MIC (Enterobacterales; Escherichia coli, KUB No. 5781, AR Bank # 435, read-out: MIC): 4 µg/mL (≈ 5.32 µM)
- MIC (Enterobacterales; Escherichia, KUB No. 57, AR Bank # 436 (row cut off)): ≤0.0 µg/mL
- MIC (Enterobacterales; Klebsiella aerogenes, Enterobacter aerogenes, KUB No. 5559, AR Bank # 62, read-out: MIC): ≤ 0.06 µg/mL
- MIC (Enterobacterales; Klebsiella aerogenes, Enterobacter aerogenes, KUB No. 5571, AR Bank # 74, read-out: MIC): ≤ 0.06 µg/mL
- MIC (Enterobacterales; Klebsiella aerogenes, Enterobacter aerogenes, KUB No. 5658, AR Bank # 161, read-out: MIC): 1 µg/mL (≈ 1.33 µM)
- MIC (Enterobacterales; Klebsiella aerogenes, Enterobacter aerogenes, KUB No. 5777, AR Bank # 431, read-out: MIC): 1 µg/mL (≈ 1.33 µM)
- MIC (Enterobacterales; Klebsiella oxytoca, KUB No. 5568, AR Bank # 71, read-out: MIC): ≤ 0.06 µg/mL
- MIC (Enterobacterales; Klebsiella oxytoca, KUB No. 5644, AR Bank # 147, read-out: MIC): 0.12 µg/mL (≈ 0.16 µM)
- MIC (Enterobacterales; Klebsiella oxytoca, KUB No. 5771, AR Bank # 375, read-out: MIC): 0.5 µg/mL (≈ 0.665 µM)
- MIC (Enterobacterales; Klebsiella oxytoca, KUB No. 5776, AR Bank # 380, read-out: MIC): ≤ 0.06 µg/mL
- MIC (Enterobacterales; Klebsiella ozaenae, KUB No. 5593, AR Bank # 96, read-out: MIC): ≤ 0.06 µg/mL
- MIC (Enterobacterales; Klebsiella pnemnonine, KUB No. 5758, AR Bank # 362, read-out: MIC): 0.5 µg/mL (≈ 0.665 µM)
- MIC (Enterobacterales; Klebsiella pneumoniae, KUB No. 5531, AR Bank# 34, read-out: MIC): 0.25 µg/mL (≈ 0.332 µM)
- MIC (Enterobacterales; Klebsiella pneumoniae, KUB No. 5536, AR Bank# 39, read-out: MIC): 0.12 µg/mL (≈ 0.16 µM)
- MIC (Enterobacterales; Klebsiella pneumoniae, KUB No. 5537, AR Bank# 40, read-out: MIC): 0.5 µg/mL (≈ 0.665 µM)
- MIC (Enterobacterales; Klebsiella pneumoniae, KUB No. 5538, AR Bank# 41, read-out: MIC): 2 µg/mL (≈ 2.66 µM)
- MIC (Enterobacterales; Klebsiella pneumoniae, KUB No. 5540, AR Bank# 43, read-out: MIC): 0.25 µg/mL (≈ 0.332 µM)
- MIC (Enterobacterales; Klebsiella pneumoniae, KUB No. 5541, AR Bank# 44, read-out: MIC): 0.5 µg/mL (≈ 0.665 µM)
- MIC (Enterobacterales; Klebsiella pneumoniae, KUB No. 5543, AR Bank# 46, read-out: MIC): 0.25 µg/mL (≈ 0.332 µM)
- MIC (Enterobacterales; Klebsiella pneumoniae, KUB No. 5546, AR Bank# 49, read-out: MIC): 1 µg/mL (≈ 1.33 µM)
- MIC (Enterobacterales; Klebsiella pneumoniae, KUB No. 5563, AR Bank # 66, read-out: MIC): 0.5 µg/mL (≈ 0.665 µM)
- MIC (Enterobacterales; Klebsiella pneumoniae, KUB No. 5565, AR Bank # 68, read-out: MIC): 2 µg/mL (≈ 2.66 µM)
- MIC (Enterobacterales; Klebsiella pneumoniae, KUB No. 5572, AR Bank # 75, read-out: MIC): 0.25 µg/mL (≈ 0.332 µM)
- MIC (Enterobacterales; Klebsiella pneumoniae, KUB No. 5573, AR Bank # 76, read-out: MIC): ≤ 0.06 µg/mL
